The text below walks through data of patent US7417054B2, “Naphthyridine compounds” (Janssen Pharmaceutica N.V., priority 2005, dated 2008).

One experiment concerns the target T1, human H3 receptor (Homo sapiens, UniProt Q9Y5N1).
T1 construct: expressed in transfected cells; host or cells: SK-N-MC cells
Description: H3 receptor binding, N-[3H]-α-methylhistamine displacement on SK-N-MC cell membranes. Particulars: cloned human H3 receptor in SK-N-MC cell membranes; 0.8 nM N-[3H]-α-methylhistamine; 60 min at 25° C.

For another experiment, the target named is Rat SERT (Rattus norvegicus, UniProt P31652). Description: Rat brain SERT binding, [3H]-Citalopram displacement on rat brain membranes. Particulars: for Ki: Rat SERT Ki (nM).
Chain of Rat SERT (P31652 whole entry): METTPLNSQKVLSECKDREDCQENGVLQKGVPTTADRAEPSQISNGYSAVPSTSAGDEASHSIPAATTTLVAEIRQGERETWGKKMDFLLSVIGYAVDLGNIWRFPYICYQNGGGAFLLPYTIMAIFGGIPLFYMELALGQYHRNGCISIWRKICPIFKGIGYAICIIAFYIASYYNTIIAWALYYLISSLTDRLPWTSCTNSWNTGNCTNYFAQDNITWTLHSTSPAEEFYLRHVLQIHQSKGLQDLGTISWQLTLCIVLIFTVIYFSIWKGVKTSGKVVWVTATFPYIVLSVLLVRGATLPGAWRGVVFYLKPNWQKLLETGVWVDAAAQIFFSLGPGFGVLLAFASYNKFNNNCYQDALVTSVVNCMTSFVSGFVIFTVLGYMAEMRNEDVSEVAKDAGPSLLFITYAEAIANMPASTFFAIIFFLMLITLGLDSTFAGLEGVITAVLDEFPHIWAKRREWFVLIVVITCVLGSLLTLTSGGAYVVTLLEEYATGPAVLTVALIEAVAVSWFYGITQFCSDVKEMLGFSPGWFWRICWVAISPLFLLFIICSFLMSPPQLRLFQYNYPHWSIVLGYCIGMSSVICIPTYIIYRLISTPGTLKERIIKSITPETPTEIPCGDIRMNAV
A further experiment addresses T2, human SERT (Homo sapiens, UniProt P31645).
T2 construct: expressed in transfected cells; host or cells: HEK293
The experiment is described as follows: Human SERT binding, 3H-citalopram displacement on HEK293 membranes. Particulars: HEK293 membranes expressing the human SERT, rt for 1 h. The procedure:
Homogenized HEK293 (Human Embryonic Kidney) membranes expressing the human SERT were incubated with ^3H-citalopram (SERT) at rt for 1 h in 50 mM Tris, 120 mM NaCl, 5 mM KCl (pH 7.4). […] The membranes were washed and the radioactivity was counted as above.

[1] abbreviates: rat brain membranes without cerebellum, 0.6 nM [3H]-Citalopram, 60 min at 25° C.
Setting [2] is: read-out: Rat SERT Ki, rat brain membranes without cerebellum, 0.6 nM [3H]-Citalopram, 60 min at 25° C.

pKi: −log10 of the molar value. Where a name gives a salt, the structure may show the parent alone. Read-outs that look alike come from different tables or passages of the source.

T2 sequence (P31645 whole entry): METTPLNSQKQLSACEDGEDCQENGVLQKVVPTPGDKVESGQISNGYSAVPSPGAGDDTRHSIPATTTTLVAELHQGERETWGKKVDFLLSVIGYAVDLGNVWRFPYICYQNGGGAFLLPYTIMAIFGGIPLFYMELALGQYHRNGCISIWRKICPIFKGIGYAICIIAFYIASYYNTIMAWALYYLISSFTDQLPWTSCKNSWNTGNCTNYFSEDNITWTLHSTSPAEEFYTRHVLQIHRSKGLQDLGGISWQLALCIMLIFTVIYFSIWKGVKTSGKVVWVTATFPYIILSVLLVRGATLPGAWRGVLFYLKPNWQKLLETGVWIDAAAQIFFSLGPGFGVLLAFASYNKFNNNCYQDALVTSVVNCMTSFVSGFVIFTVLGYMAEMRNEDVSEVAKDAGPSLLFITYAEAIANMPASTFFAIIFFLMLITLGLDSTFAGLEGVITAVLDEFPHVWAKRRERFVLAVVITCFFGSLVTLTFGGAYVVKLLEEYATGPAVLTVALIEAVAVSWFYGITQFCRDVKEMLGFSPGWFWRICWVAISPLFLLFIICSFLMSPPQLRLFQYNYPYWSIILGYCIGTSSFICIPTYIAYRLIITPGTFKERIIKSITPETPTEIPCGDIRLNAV
T1 sequence (Q9Y5N1 whole entry): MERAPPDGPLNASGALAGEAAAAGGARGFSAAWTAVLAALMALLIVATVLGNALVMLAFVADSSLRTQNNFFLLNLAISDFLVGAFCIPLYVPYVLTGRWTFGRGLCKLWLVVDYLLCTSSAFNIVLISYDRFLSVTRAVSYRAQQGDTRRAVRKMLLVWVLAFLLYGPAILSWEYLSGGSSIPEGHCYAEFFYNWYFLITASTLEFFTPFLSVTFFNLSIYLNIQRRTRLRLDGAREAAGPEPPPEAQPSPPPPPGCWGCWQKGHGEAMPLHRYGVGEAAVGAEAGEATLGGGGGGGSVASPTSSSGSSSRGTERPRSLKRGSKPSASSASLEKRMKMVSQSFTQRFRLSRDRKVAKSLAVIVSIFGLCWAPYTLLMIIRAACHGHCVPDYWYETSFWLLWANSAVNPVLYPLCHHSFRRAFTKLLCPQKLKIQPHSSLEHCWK
Description for Rat SERT: The supernatant was removed and re-centrifuged at 15,000 rpm for 30 min. […] Membranes were incubated with 0.6 nM [^3H]-Citalopram plus/minus test compounds for 60 min at 25° C. and harvested by rapid filtration over GF/C glass fiber filters (pretreated with 0.3% polyethylenimine) followed by four washes with ice-cold buffer.

On human H3 receptor, `CN1Cc2cc(OCCCN3CCCCC3)ncc2C(c2ccc(Cl)c(Cl)c2)C1` (single isomer, unassigned; enantiomer a) [Example 38, 4-(3,4-Dichloro-phenyl)-2-methyl-7-(3-piperidin-1-yl-propoxy)-1,2,3,4-tetrahydro-[2,6]-naphthyridine (enantiomer A)] gave a pKi of 7.30. On Rat SERT (setting [1]), affinity was put at a Ki of 56 nM.
As to `Clc1ccc(C2CNCc3cc(OCCCN4CCCCC4)ncc32)cc1Cl` (single isomer, unassigned; enantiomer a) [Example 45, 4-(3,4-Dichloro-phenyl)-7-(3-piperidin-1-yl-propoxy)-1,2,3,4-tetrahydro-[2,6]-naphthyridine (enantiomer A)], the figures for the pKi on human H3 receptor and at Rat SERT were 8.40 and 7.00, respectively.
As to `CN1Cc2cc(OCCCN3CCCCC3)ncc2C(c2ccc(Cl)c(Cl)c2)C1` (single isomer, unassigned; enantiomer b) [Example 39, 4-(3,4-Dichloro-phenyl)-2-methyl-7-(3-piperidin-1-yl-propoxy)-1,2,3,4-tetrahydro-[2,6]-naphthyridine (enantiomer B)], the pKi on human H3 receptor was 7.38. The same compound yielded a Ki at Rat SERT (setting [1]) of 233 nM.
As to `Clc1ccc(C2CNCc3cc(OCCCN4CCCCC4)ncc32)cc1Cl` (single isomer, unassigned; enantiomer b) [Example 46, 4-(3,4-Dichloro-phenyl)-7-(3-piperidin-1-yl-propoxy)-1,2,3,4-tetrahydro-[2,6]-naphthyridine (enantiomer B)], the pKi at human SERT is 7.80; on human H3 receptor, 7.89. On Rat SERT (setting [1]), the Ki was determined as 17 nM.
Take `CN1Cc2cc(OCCCN3CCCCC3)ncc2C(c2ccccc2)C1` (centres unmarked) [Example 3, 2-Methyl-4-phenyl-7-(3-piperidin-1-yl-propoxy)-1,2,3,4-tetrahydro-[2,6]-naphthyridine]: the figures for the pKi on human SERT, on human H3 receptor and on Rat SERT (setting [2]) were 5.94, 8.30 and 6.24, respectively.
Take `COc1ccc(C2CN(C)Cc3cc(OCCCN4CCCCC4)ncc32)cc1` (centres unmarked) [Example 8, 4-(4-Methoxy-phenyl)-2-methyl-7-(3-piperidin-1-yl-propoxy)-1,2,3,4-tetrahydro-[2,6]-naphthyridine]: the pKi is 6.97 on human SERT, 7.92 on human H3 receptor and 7.47 at Rat SERT (setting [2]).
The compound `COc1ccc(C2CNCc3cc(OCCC4CCCN4C)ncc32)cc1` (centres unmarked) [Example 9, 4-(4-Methoxy-phenyl)-7-[2-(1-methyl-pyrrolidin-2-yl)-ethoxy]-1,2,3,4-tetrahydro-[2,6]-naphthyridine] had a pKi on human H3 receptor of 8.52. Affinity on Rat SERT (setting [1]) was put at a Ki of 43 nM.
On to `COc1ccc(C2CN(C)Cc3cc(OCCC4CCCN4C)ncc32)cc1` (centres unmarked) [Example 10, 4-(4-Methoxy-phenyl)-2-methyl-7-[2-(1-methyl-pyrrolidin-2-yl)-ethoxy]-1,2,3,4-tetrahydro-[2,6]-naphthyridine], for which the pKi on human H3 receptor is 8.40; at Rat SERT it was 7.70.
Regarding `COc1ccc(C2CNCc3cc(OCCCN4CCOCC4)ncc32)cc1` (centres unmarked) [Example 11, 4-(4-Methoxy-phenyl)-7-(3-morpholin-4-yl-propoxy)-1,2,3,4-tetrahydro-[2,6]-naphthyridine], the pKi on human SERT was 6.72; at human H3 receptor, 7.37; at Rat SERT (setting [2]) it was 7.28.
For `COc1ccc(C2CN(C)Cc3cc(OCCCN4CCOCC4)ncc32)cc1` (centres unmarked) [Example 12, 4-(4-Methoxy-phenyl)-2-methyl-7-(3-morpholin-4-yl-propoxy)-1,2,3,4-tetrahydro-[2,6]-naphthyridine], in that order: 7.15, 7.05 and 7.54.
Take `COc1cccc(C2CN(C)Cc3cc(OCCCN4CCCCC4)ncc32)c1` (centres unmarked) [Example 14, 4-(3-Methoxy-phenyl)-2-methyl-7-(3-piperidin-1-yl-propoxy)-1,2,3,4-tetrahydro-[2,6]-naphthyridine]: the pKi on human SERT is 6.52; at human H3 receptor it was 8.10; on Rat SERT (setting [2]) it was 7.23.
Consider `COc1ccc(C2CNCc3cc(OCCCN4CCC(F)(F)CC4)ncc32)cc1` (centres unmarked) [Example 19, 7-[3-(4,4-Difluoro-piperidin-1-yl)-propoxy]-4-(4-methoxy-phenyl)-1,2,3,4-tetrahydro-[2,6]-naphthyridine], for which the negative-log Ki (pKi) at human SERT was 7.29; on human H3 receptor, 6.68; on Rat SERT, 7.25.
With `CCN(CC)CCCOc1cc2c(cn1)C(c1ccc(OC)cc1)CNC2` (centres unmarked) [Example 20, Diethyl-{3-[8-(4-methoxy-phenyl)-5,6,7,8-tetrahydro-[2,6]naphthyridin-3-yloxy]-propyl}-amine], the pKi on human SERT is 6.65; on human H3 receptor it was 7.64; on Rat SERT (setting [2]), 6.89.
Compound `COc1ccc(C2CNCc3cc(OC4CCN(Cc5ccccc5)CC4)ncc32)cc1` (centres unmarked) [Example 22, 7-(1-Benzyl-piperidin-4-yloxy)-4-(4-methoxy-phenyl)-1,2,3,4-tetrahydro-[2,6]-naphthyridine] had a pKi on Rat SERT of 7.06.
As for `Clc1ccc(C2CNCc3cc(OCCCN4CCOCC4)ncc32)cc1Cl` (centres unmarked) [Example 26, 4-(3,4-Dichloro-phenyl)-7-(3-morpholin-4-yl-propoxy)-1,2,3,4-tetrahydro-[2,6]-naphthyridine], the pKi at human SERT is 6.21; on human H3 receptor, 7.36. The Ki on Rat SERT (setting [1]) worked out at 64 nM.
With `CN1Cc2cc(OCCCN3CCCCC3)ncc2C(c2cccc(Cl)c2)C1` (centres unmarked) [Example 27, 4-(3-Chloro-phenyl)-2-methyl-7-(3-piperidin-1-yl-propoxy)-1,2,3,4-tetrahydro-[2,6]-naphthyridine], the pKi on human SERT is 6.08; on human H3 receptor it was 8.15; at Rat SERT (setting [2]) it was 6.84.
`COc1ccc(C2CN(C)Cc3cc(OCCCN4CCC(F)(F)CC4)ncc32)cc1` (centres unmarked) [Example 28, 7-[3-(4,4-Difluoro-piperidin-1-yl)-propoxy]-4-(4-methoxy-phenyl)-2-methyl-1,2,3,4-tetrahydro-[2,6]naphthyridine] showed a pKi on human H3 receptor of 6.58. Further, the affinity on Rat SERT (setting [1]), expressed as Ki, was 129 nM.
Regarding `CCN(CC)CCCOc1cc2c(cn1)C(c1ccc(OC)cc1)CN(C)C2` (centres unmarked) [Example 29, Diethyl-{3-[8-(4-methoxy-phenyl)-6-methyl-5,6,7,8-tetrahydro-[2,6]naphthyridin-3-yloxy]-propyl}-amine], the pKi was 7.18 on human SERT, 7.89 on human H3 receptor and 7.72 on Rat SERT (setting [2]).
For `CCN(CC)CCCOc1cc2c(cn1)C(c1ccc(Cl)c(Cl)c1)CN(C)C2` (centres unmarked) [Example 30, {3-[8-(3,4-Dichloro-phenyl)-6-methyl-5,6,7,8-tetrahydro-[2,6]naphthyridin-3-yloxy]-propyl}-diethyl-amine], in that order: 7.52, 7.80 and 7.48.
Take `CN1Cc2cc(OCCCN3CCCCC3)ncc2C(c2ccc(F)c(Cl)c2)C1` (centres unmarked) [Example 35, 4-(3-Chloro-4-fluoro-phenyl)-2-methyl-7-(3-piperidin-1-yl-propoxy)-1,2,3,4-tetrahydro-[2,6]naphthyridine]: the pKi was 6.83 at human SERT, 8.15 at human H3 receptor and 7.59 at Rat SERT.
Take `CN1Cc2cc(OCCCN3CCCCC3)ncc2C(c2ccc(Cl)cc2)C1` (centres unmarked) [Example 36, 4-(4-Chloro-phenyl)-2-methyl-7-(3-piperidin-1-yl-propoxy)-1,2,3,4-tetrahydro-[2,6]naphthyridine]: the pKi is 6.97 at human SERT, 7.82 on human H3 receptor and 7.66 on Rat SERT (setting [2]).
For `COc1ccc(C2CN(C)Cc3cc(OCC4CCN(C(C)C)CC4)ncc32)cc1` (centres unmarked) [Example 40, 7-(1-Isopropyl-piperidin-4-ylmethoxy)-4-(4-methoxy-phenyl)-2-methyl-1,2,3,4-tetrahydro-[2,6]-naphthyridine], in that order: 7.21, 7.89 and 7.35.
Consider `CC(C)N1CCC(COc2cc3c(cn2)C(c2ccc(Cl)c(Cl)c2)CN(C)C3)CC1` (centres unmarked) [Example 41, 4-(3,4-Dichloro-phenyl)-7-(1-isopropyl-piperidin-4-ylmethoxy)-2-methyl-1,2,3,4-tetrahydro-[2,6]naphthyridine], for which the values for the pKi at human SERT, at human H3 receptor and at Rat SERT (setting [2]) were 7.51, 7.89 and 7.64, respectively.
In turn, `COc1ccc(C2CNCc3cc(OC4CCNCC4)ncc32)cc1` (centres unmarked) [Example 42, 4-(4-Methoxy-phenyl)-7-(piperidin-4-yloxy)-1,2,3,4-tetrahydro-[2,6]naphthyridine] gave a pKi at Rat SERT of 6.97.
On to `COc1ccc(C2CN(C)Cc3cc(OC4CCN(C)CC4)ncc32)cc1` (centres unmarked) [Example 43, 4-(4-Methoxy-phenyl)-2-methyl-7-(1-methyl-piperidin-4-yloxy)-1,2,3,4-tetrahydro-[2,6]naphthyridine], for which the pKi on human SERT is 5.99; at human H3 receptor, 6.10; at Rat SERT, 6.86.
In the same order, the values of `FC(F)(F)Oc1ccc(C2CNCc3cc(OCCCN4CCCCC4)ncc32)cc1` (centres unmarked) [Example 44, 7-(3-Piperidin-1-yl-propoxy)-4-(4-trifluoromethoxy-phenyl)-1,2,3,4-tetrahydro-[2,6]naphthyridine] are 7.15, 7.74 and 7.13.
As for `COc1ccc(C2CN(C)Cc3cc(C#CCCN4CCCCC4)cnc32)cc1` (centres unmarked) [Example 48, 8-(4-Methoxy-phenyl)-6-methyl-3-(4-piperidin-1-yl-but-1-ynyl)-5,6,7,8-tetrahydro-[1,6]naphthyridine trifluoroacetic acid salt], the pKi is 5.70 at human SERT, 7.35 at human H3 receptor and 6.00 on Rat SERT.

As a reminder, the pKi is the Ki on a negative log10 scale, so that one unit is a factor of ten. As a reminder, the Ki is the equilibrium dissociation constant of an inhibitor or competing ligand from its target. High values mean weaker binding, low ones tighter binding.
